Earlier results, collected in paper PMC3534868 (Pharmaceutical biology, 2011).
Like-named read-outs stand apart in the source and are kept apart here.

What was measured:
Col-2 = Col-2 cells; ref Zhang et al., 2004
LNCaP (prostate) = details: LNCaP cells; ref Zhang et al., 2004
[1] = tested on: KB (human oral epidermoid carcinoma); details: KB cells; for KB IC50: ref Zhang et al., 2004
hTERT = hTERT cells; ref Zhang et al., 2004
HUVEC = HUVEC cells; ref Zhang et al., 2004
LU-1 (lung) = details: LU-1 cells; ref Zhang et al., 2004
[2] = tested on: malaria parasite (chloroquine-sensitive and chloroquine-resistant strains); details: for in vitro activities against the malaria parasites: 2005

## C[C@@H]1CC[C@@]2(OC1)O[C@H]1C[C@H]3[C@@H]4CCC5=CC(=O)CC[C@]5(C)[C@H]4C[C@@H](O)[C@]3(C)[C@@]1(O)[C@@H]2C [SLA7037-K001, Asparacosin A]
Col-2
  Col-2 IC50: >20 µg/mL
LNCaP (prostate)
  LNCaP IC50: >20 µg/mL
[1]
  KB IC50: 10.7 µg/mL
hTERT
  hTERT IC50: >20 µg/mL
HUVEC
  HUVEC IC50: >20 µg/mL
LU-1 (lung)
  LU-1 IC50: >20 µg/mL

## CC1(C)CC[C@]2(C(=O)O)CC[C@]3(C)C(=CC[C@@H]4[C@@]5(C)CC[C@H](O)C(C)(C)[C@@H]5CC[C@]43C)[C@@H]2C1 [SLA7018-K003, Oleanolic acid]
P. falciparum D6; ref He et al., 2005
  D6 IC50: 2.116 ± 0.308 µg/mL
[1]; ref He et al., 2005
  KB ED50: 21 µg/mL
P. falciparum W2; ref He et al., 2005
  W2 IC50: 2.335 ± 0.013 µg/mL

## epi-Methoxy-naucleaorine [SLA7018-K002]
P. falciparum D6; ref He et al., 2005
  D6 IC50: 6.535 ± 0.151 µg/mL
[1]; ref He et al., 2005
  KB ED50: >20 µg/mL
P. falciparum W2; ref He et al., 2005
  W2 IC50: 6.979 ± 0.008 µg/mL
[2]; ref He et al.
  in vitro activities against the malaria parasites: showed in vitro activities

## C=C(C)[C@@H]1CC[C@]2(C(=O)O)CC[C@]3(C)[C@H](CC[C@@H]4[C@@]5(C)CC[C@H](OC(=O)/C=C/c6ccc(O)c(O)c6)C(C)(C)[C@@H]5CC[C@]43C)[C@@H]12 [SLA7062-K001, Betulinic acid 3β-caffeate]
P. falciparum D6; ref Ma et al., 2008
  D6 IC50: 0.87 µg/mL
[1]; ref Ma et al., 2008
  KB ED50: 2.5 µg/mL
P. falciparum W2; ref Ma et al., 2008
  W2 IC50: 0.607 µg/mL
[2]; chloroquine-sensitive and chloroquine-resistant strains, ref Ma et al., 2008
  in vitro antimalarial activity: in vitro-active

## Pinoresinol [SLA7062-K004]
P. falciparum D6; ref Ma et al., 2008
  D6 IC50: 1.361 µg/mL
[1]; ref Ma et al., 2008
  KB ED50: >40 µg/mL
P. falciparum W2; ref Ma et al., 2008
  W2 IC50: 3.15 µg/mL

## COc1cc([C@H](O[C@@H]2O[C@H](CO)[C@@H](O)[C@H](O)[C@H]2O)[C@H](CO)Oc2c(OC)cc(CCCO)cc2OC)ccc1O [SLA7006-K008, Rourinoside]
P. falciparum D6; ref He et al., 2006
  D6 IC50: 2.1 µg/mL
[1]; ref He et al., 2006
  KB ED50: >20 µg/mL
P. falciparum W2; ref He et al., 2006
  W2 IC50: 1.2 µg/mL
[2]; ref He et al., 2006
  in vitro antimalarial activity: in vitro-active

## Gongroneside A [SLA7530-K001]
P. falciparum D6; ref Libman et al., 2008
  D6 IC50: 2.33 µg/mL
[1]; ref Libman et al., 2008
  KB ED50: >20 µg/mL
P. falciparum W2; ref Libman et al., 2008
  W2 IC50: 2.02 µg/mL
[2]; both strains of the malaria parasites, ref Libman et al., 2008
  in vitro antimalarial activity: in vitro-active

## 3″-Hydroxy-4″-methoxy-4″-dehyroxy-nyasol [SLA7037-K007]
Col-2
  Col-2 IC50: 11.7 µg/mL
LNCaP (prostate)
  LNCaP IC50: 11.6 µg/mL
[1]
  KB IC50: 9.0 µg/mL
hTERT
  hTERT IC50: 0.2 µg/mL
HUVEC
  HUVEC IC50: 16.4 µg/mL
LU-1 (lung)
  LU-1 IC50: 7.2 µg/mL

## C=C(C)[C@@H]1CC[C@]2(C(=O)O)CC[C@]3(C)[C@H](CC[C@@H]4[C@@]5(C)CC[C@H](O)C(C)(C)[C@@H]5CC[C@]43C)[C@@H]12 [SLA7062-K001a, Betulinic acid]
P. falciparum D6; ref Ma et al., 2008
  D6 IC50: 3.696 µg/mL
[1]; ref Ma et al., 2008
  KB ED50: >40 µg/mL
P. falciparum W2; ref Ma et al., 2008
  W2 IC50: 3.776 µg/mL

## C[C@H]1CC[C@@]2(OC1)O[C@H]1C[C@H]3[C@@H]4CC[C@@H]5C[C@@H](O[C@@H]6O[C@H](CO[C@@H]7OC[C@H](O)[C@H](O)[C@H]7O)[C@@H](O[C@@H]7OC[C@H](O)[C@H](O)[C@H]7O)[C@H](O)[C@H]6O[C@@H]6O[C@H](CO)[C@@H](O)[C@H](O)[C@H]6O)CC[C@]5(C)[C@H]4CC[C@]3(C)[C@H]1[C@@H]2C [SLA7037-K003, Asparacoside]
Col-2
  Col-2 IC50: 5.4 µg/mL
LNCaP (prostate)
  LNCaP IC50: 10.1 µg/mL
[1]
  KB IC50: 4.8 µg/mL
hTERT
  hTERT IC50: 4.3 µg/mL
HUVEC
  HUVEC IC50: 4.1 µg/mL
LU-1 (lung)
  LU-1 IC50: 4.2 µg/mL

## Rouremin [SLA7006-K005]
P. falciparum D6; ref He et al., 2006
  D6 IC50: 4 µg/mL
[1]; ref He et al., 2006
  KB ED50: >20 µg/mL
P. falciparum W2; ref He et al., 2006
  W2 IC50: 3.5 µg/mL
[2]; ref He et al., 2006
  in vitro antimalarial activity: in vitro-active

## C=C(C)[C@@H]1CC[C@]2(C(=O)O)CC[C@]3(C)[C@H](CC[C@@H]4[C@@]5(C)CC[C@H](OC(=O)/C=C/c6ccc(OC(C)=O)c(OC(C)=O)c6)C(C)(C)[C@@H]5CC[C@]43C)[C@@H]12 [SLA7062-K001b, Betulinic acid 3β-bisacetylcaffeate]
P. falciparum D6; ref Ma et al., 2008
  D6 IC50: 0.48 µg/mL
[1]; ref Ma et al., 2008
  KB ED50: 2.07 µg/mL
P. falciparum W2; ref Ma et al., 2008
  W2 IC50: 0.443 µg/mL

## COc1cc(OCC=CC#Cc2ccc(O)cc2)ccc1O [SLA7037-K004, 3′-Methoxy-asparenydiol]
Col-2
  Col-2 IC50: >20 µg/mL
LNCaP (prostate)
  LNCaP IC50: >20 µg/mL
[1]
  KB IC50: 12.0 µg/mL
hTERT
  hTERT IC50: 0.3 µg/mL
HUVEC
  HUVEC IC50: >20 µg/mL
LU-1 (lung)
  LU-1 IC50: 19.7 µg/mL

## Naucleaorine [SLA7018-K006]
P. falciparum D6; ref He et al., 2005
  D6 IC50: 3.61 ± 0.595 µg/mL
[1]; ref He et al., 2005
  KB ED50: 20 µg/mL
P. falciparum W2; ref He et al., 2005
  W2 IC50: 4.192 ± 0.008 µg/mL
[2]; ref He et al.
  in vitro activities against the malaria parasites: showed in vitro activities

## Oc1ccc(C#C/C=C/COc2ccc(O)cc2)cc1 [SLA7037-K010, Asparenydiol]
Col-2
  Col-2 IC50: >20 µg/mL
LNCaP (prostate)
  LNCaP IC50: >20 µg/mL
[1]
  KB IC50: 2.4 µg/mL
hTERT
  hTERT IC50: 0.2 µg/mL
HUVEC
  HUVEC IC50: >20 µg/mL
LU-1 (lung)
  LU-1 IC50: 19.8 µg/mL

## C[C@H]1[C@H](C)CC[C@]2(C(=O)O)CC[C@]3(C)C(=CC[C@@H]4[C@@]5(C)CC[C@@H](O)[C@@](C)(CO)[C@@H]5CC[C@]43C)[C@H]12 [SLA7018-K008, 3α,23-Dihydroxy-urs-12-en-28-oic acid]
P. falciparum D6; ref He et al., 2005
  D6 IC50: 4.567 ± 0.702 µg/mL
[1]; ref He et al., 2005
  KB ED50: >20 µg/mL
P. falciparum W2; ref He et al., 2005
  W2 IC50: 6.006 ± 2.581 µg/mL

## C=CC(/C=C\c1ccc(O)cc1)c1ccc(O)c(OC)c1 (stereo not drawn) [SLA7037-K006, 3″-Methoxy-nyasol]
Col-2
  Col-2 IC50: 6.3 µg/mL
LNCaP (prostate)
  LNCaP IC50: 6.6 µg/mL
[1]
  KB IC50: 9.0 µg/mL
hTERT
  hTERT IC50: 1.2 µg/mL
HUVEC
  HUVEC IC50: 6.7 µg/mL
LU-1 (lung)
  LU-1 IC50: 4.5 µg/mL
